The source of these data is patent publication US20250313548A1 (Actio Biosciences, Inc., priority 2023, published 2025).

One may read the IC50 as the midpoint of a concentration-inhibition curve. Read a high IC50 as weaker potency in that assay.

The target of this assay is human, KCNT1 (Homo sapiens (Human), UniProt Q5JUK3). The assay can be described thus: FLIPR Tl/K Flux Assay. In kind it is cell-based. Particulars: HEK293 cells stably expressing human KCNT1; Tl+ flux stimulated with EC80 of agonist Loxapine. The essentials: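 HEK293 cells stably expressing human KCNT1 were loaded with FLIPR potassium dye in HEPES/HBSS pH 7.4 with 5 mM probenecid, 1 h at 25 °C, then given test compound for 30 min at 25 °C. Tl+ flux was triggered with chloride-free buffer containing Tl+ and EC80 loxapine and read 160 s. IC50 came from Hill fits of % inhibition.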
Chain of human, KCNT1 (Q5JUK3 whole entry): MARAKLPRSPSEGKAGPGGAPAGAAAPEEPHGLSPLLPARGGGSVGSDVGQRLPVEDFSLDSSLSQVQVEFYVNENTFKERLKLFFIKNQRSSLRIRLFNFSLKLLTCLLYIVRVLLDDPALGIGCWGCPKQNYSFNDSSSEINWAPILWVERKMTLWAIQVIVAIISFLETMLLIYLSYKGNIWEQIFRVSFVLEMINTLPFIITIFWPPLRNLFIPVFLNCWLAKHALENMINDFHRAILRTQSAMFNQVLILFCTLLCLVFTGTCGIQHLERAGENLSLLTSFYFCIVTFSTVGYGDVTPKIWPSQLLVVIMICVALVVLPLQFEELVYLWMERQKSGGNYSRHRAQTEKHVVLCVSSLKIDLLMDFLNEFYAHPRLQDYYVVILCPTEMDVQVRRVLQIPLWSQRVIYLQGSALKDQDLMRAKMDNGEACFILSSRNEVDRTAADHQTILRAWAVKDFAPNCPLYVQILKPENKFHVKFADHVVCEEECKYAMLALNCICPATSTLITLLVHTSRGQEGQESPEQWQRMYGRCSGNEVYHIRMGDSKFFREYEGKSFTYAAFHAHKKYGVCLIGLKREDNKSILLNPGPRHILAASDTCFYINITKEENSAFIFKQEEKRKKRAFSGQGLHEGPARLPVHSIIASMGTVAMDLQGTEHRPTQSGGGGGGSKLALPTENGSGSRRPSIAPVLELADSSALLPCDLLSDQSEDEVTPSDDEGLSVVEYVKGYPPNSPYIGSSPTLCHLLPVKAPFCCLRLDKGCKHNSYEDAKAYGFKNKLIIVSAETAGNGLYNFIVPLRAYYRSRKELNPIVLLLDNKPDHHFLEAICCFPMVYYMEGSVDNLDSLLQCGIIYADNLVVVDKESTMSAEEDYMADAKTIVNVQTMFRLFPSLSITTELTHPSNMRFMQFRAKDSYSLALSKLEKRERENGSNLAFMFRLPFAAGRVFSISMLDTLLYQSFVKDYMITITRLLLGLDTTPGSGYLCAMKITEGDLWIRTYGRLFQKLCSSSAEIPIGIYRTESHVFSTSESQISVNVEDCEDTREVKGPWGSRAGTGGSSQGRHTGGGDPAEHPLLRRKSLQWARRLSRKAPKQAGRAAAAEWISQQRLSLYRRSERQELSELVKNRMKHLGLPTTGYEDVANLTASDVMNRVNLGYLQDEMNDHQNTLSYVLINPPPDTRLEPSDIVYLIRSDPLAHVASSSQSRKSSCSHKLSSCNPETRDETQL
For `Cc1ccn(CC(=O)N[C@H]2CCCn3nc(-c4ccnc(C(F)(F)F)c4)cc32)n1` [Compound I-423a], the half-inhibitory concentration (IC50) was > 1000 nM.

As for `Cn1nc(C(F)(F)F)cc1C(=O)N[C@H]1CCCc2ncc(-c3ccnc(C(F)(F)F)c3)cc21` [Compound I-383a], the half-inhibitory concentration (IC50) is > 1000 nM.

Consider `CCOc1cc(-n2cc3c(n2)CCCC[C@@H]3NC(=O)c2cccc(C)c2)ccn1` [Compound I-361a], for which the IC50 is < 250 nM.

As for `CC1(C)C[C@H](NC(=O)c2cccc(C#N)c2)c2cc(-c3ccnc(C(F)(F)F)c3)nn2C1` [Compound I-220a, (S)-3-Cyano-N-(6,6-dimethyl-2-(2-(trifluoromethyl)pyridin-4-yl)-4,5,6,7-tetrahydropyrazolo[1,5-a]pyridin-4-yl)benzamide], the IC50 fell in the range of 250 to 500 nM.

Regarding `COc1cc(-n2cc3c(n2)CC[C@@H]3NC(=O)c2ccc(F)c(C#N)c2)ccn1` [Compound I-259a, (S)-3-Cyano-4-fluoro-N-(2-(2-methoxypyridin-4-yl)-2,4,5,6-tetrahydrocyclopenta[c]pyrazol-4-yl)benzamide], the half-maximal inhibitory concentration (IC50) was < 250 nM.

As to `CN(C(=O)N[C@H]1CCc2nn(-c3ccnc(C(F)(F)F)c3)cc21)c1ccccc1` [Compound I-102a], the IC50 is < 250 nM.

In the case of `COc1cc(-c2cc3n(n2)CC[C@@H]3NC(=O)c2cncc(C(F)(F)F)n2)c(F)cn1` [Compound I-576a, (S)-N-(2-(5-Fluoro-2-methoxypyridin-4-yl)-5,6-dihydro-4H-pyrrolo[1,2-b]pyrazol-4-yl)-6-(trifluoromethyl)pyrazine-2-carboxamide], the IC50 is < 250 nM.

Consider `CCn1nc(C(F)(F)F)cc1C(=O)NC1CCCc2nn(-c3ccnc(C(F)(F)F)c3)cc21` (racemic) [Compound I-7, (rac)-1-Ethyl-3-(trifluoromethyl)-N-(2-(2-(trifluoromethyl)pyridin-4-yl)-4,5,6,7-tetrahydro-2H-indazol-4-yl)-1H-pyrazole-5-carboxamide], for which the half-inhibitory concentration (IC50) is < 250 nM.

As to `COc1cc(-c2cc3n(n2)CC[C@@H]3NC(=O)c2cnn(C(F)(F)F)c2)ccn1` [Compound I-255a, (S)-N-(2-(2-Methoxypyridin-4-yl)-5,6-dihydro-4H-pyrrolo[1,2-b]pyrazol-4-yl)-1-(trifluoromethyl)-1H-pyrazole-4-carboxamide], the half-maximal inhibitory concentration (IC50) was < 250 nM.

`O=C(N[C@H]1CCCc2cnc(-c3ccnc(C(F)(F)F)c3)cc21)c1cc2cccnn2c1` (single isomer, unassigned) [I-268*]: the IC50 is > 1000 nM.

In the case of `O=C(N[C@H]1CCn2nc(-c3ccnc(C(F)(F)F)c3)cc21)c1cc(F)cc(C2CC2)c1` [Compound I-569a, (S)-3-Cyclopropyl-5-fluoro-N-(2-(2-(trifluoromethyl)pyridin-4-yl)-5,6-dihydro-4H-pyrrolo[1,2-b]pyrazol-4-yl)benzamide], the IC50 is < 250 nM.

`CC(F)(F)c1cc(C(=O)N[C@H]2CCn3nc(-c4ccnc(C(F)(F)F)c4)cc32)ccn1` [Compound I-528a, (S)-2-(1,1-Difluoroethyl)-N-(2-(2-(trifluoromethyl)pyridin-4-yl)-5,6-dihydro-4H-pyrrolo[1,2-b]pyrazol-4-yl)isonicotinamide]: the half-inhibitory concentration (IC50) was < 250 nM.

As for `O=C(N[C@H]1CCCCc2nn(-c3ccnc(C4CC4)c3)cc21)c1cccc(C(F)(F)F)c1` [Compound I-60a], the 50% inhibitory concentration (IC50) is < 250 nM.

For the compound `COc1cc(-c2nc3c(o2)[C@H](NC(=O)c2cncc(C(F)(F)F)n2)CCC3)c(Cl)cn1` [Compound I-513b], the IC50 is > 1000 nM.

In the case of `Cc1cc(-c2cc3n(n2)CCC[C@@H]3NC(=O)c2cc(C(F)(F)F)nn2C)cc(C)n1` [Compound I-433a], the half-maximal inhibitory concentration (IC50) was > 1000 nM.

Consider `Cn1nc(-c2ccccc2)cc1C(=O)N[C@H]1CCCn2nc(-c3ccnc(C(F)(F)F)c3)cc21` [Compound I-351a], for which the IC50 was < 250 nM.

Turning to `Cc1cnc(C(F)(F)F)cc1-n1cc2c(n1)CCC[C@@H]2NC(=O)c1cc(C(F)(F)F)nn1C` [Compound I-445a], the IC50 was < 250 nM.

With `N#Cc1cccc(C(=O)N[C@H]2CCCCn3nc(-c4ccnc(C5CC5)c4)cc32)c1` [Compound I-457a], the IC50 is < 250 nM.

As to `Cn1nc(C(F)F)cc1C(=O)NC1CCCc2nn(-c3ccnc(C(F)(F)F)c3)cc21` (racemic) [Compound I-12, (rac)-3-(Difluoromethyl)-1-methyl-N-(2-(2-(trifluoromethyl)pyridin-4-yl)-4,5,6,7-tetrahydro-2H-indazol-4-yl)-1H-pyrazole-5-carboxamide], the IC50 is < 250 nM.

`Cn1nc(C2CC2)cc1C(=O)N[C@H]1CCCCc2nn(-c3ccnc(C(F)(F)F)c3)cc21` [Compound I-369a]: the IC50 was < 250 nM.

For the compound `Cn1nc(C(F)(F)F)cc1C(=O)NC1CCn2nc(-c3ccnc(C(F)(F)F)c3)cc2C1` (stereo not shown) [Compound I-468], the IC50 was < 250 nM.

In the case of `Cc1cccc(C(=O)N[C@H]2CCc3nn(-c4ccnc(C(F)(F)F)c4)cc32)c1` [Compound I-97a], the IC50 is < 250 nM.

As to `CS(=O)(=O)c1ccc(C(=O)N[C@@H]2CCc3nn(-c4ccnc(C(F)(F)F)c4)cc32)cc1` [Compound I-96b], the IC50 is > 1000 nM.

Consider `Cn1nc(C(F)(F)F)cc1C(=O)N[C@H]1CCCn2nc(-c3ccnc(C(F)(F)F)c3)nc21` [Compound I-86a, (S)-1-Methyl-3-(trifluoromethyl)-N-(2-(2-(trifluoromethyl)pyridin-4-yl)-5,6,7,8-tetrahydro-[1,2,4]triazolo[1,5-a]pyridin-8-yl)-1H-pyrazole-5-carboxamide], for which the IC50 is < 250 nM.

On to `Cn1nc(C(F)(F)F)cc1C(=O)N[C@@H]1CCc2nn(-c3ccnc(OC(F)F)c3)cc21` [Compound I-74b], for which the half-inhibitory concentration (IC50) is > 1000 nM.

Turning to `N#Cc1cc(C(=O)N[C@H]2CCCn3nc(-c4ccnc(C(F)(F)F)c4)cc32)ccc1F` [Compound I-343a, (S)-3-Cyano-4-fluoro-N-(2-(2-(trifluoromethyl)pyridin-4-yl)-4,5,6,7-tetrahydropyrazolo[1,5-a]pyridin-4-yl)benzamide], the concentration for half-maximal inhibition (IC50) is < 250 nM.

In the case of `Cn1nc(C(F)(F)F)cc1C(=O)N[C@@H]1CCCn2nc(-c3ccnc(C4CC4)c3)cc21` [Compound I-64b], the IC50 lay within 500 to 1000 nM.

`O=C(N[C@H]1CCCc2oc(-c3ccnc(C4CC4)c3)nc21)c1cn(C(F)(F)F)nc1C(F)(F)F` [Compound I-519a, (S)—N-(2-(2-cyclopropylpyridin-4-yl)-4,5,6,7-tetrahydrobenzo[d]oxazol-4-yl)-1,3-bis(trifluoromethyl)-1H-pyrazole-4-carboxamide]: the half-maximal inhibitory concentration (IC50) was < 250 nM.

`O=C(N[C@H]1CCCc2nc(-c3ccnc(C(F)(F)F)c3)oc21)c1cccc(OC(F)(F)F)c1` [Compound I-187a, (S)-3-(Trifluoromethoxy)-N-(2-(2-(trifluoromethyl)pyridin-4-yl)-4,5,6,7-tetrahydrobenzo[d]oxazol-7-yl)benzamide]: the 50% inhibitory concentration (IC50) was < 250 nM.

For `O=C(N[C@H]1CCCc2nc(-c3cc(C4CC4)ncc3F)oc21)c1cccc(OC(F)(F)F)c1` [Compound I-159a, (S)-N-(2-(2-Cyclopropyl-5-fluoropyridin-4-yl)-4,5,6,7-tetrahydrobenzo[d]oxazol-7-yl)-3-(trifluoromethoxy)benzamide], the IC50 is < 250 nM.

In turn, `Cn1nc(C(F)(F)F)cc1C(=O)N[C@@H]1CCc2nn(-c3ccnc(C4CC4)c3)cc21` [Compound I-71b] displayed an IC50 of 500 to 1000 nM.
